Source: patent US9963456B2, “Pyrrolopyrimidine compound or salt thereof and compositions containing the pyrrolopyrimidine compound or salt thereof” (TAIHO PHARMACEUTICAL CO., LTD., priority 2014, dated 2018)

Biological target: NAE (heterodimer of APPBP1 and UBA3) (Homo sapiens (Human), UniProt Q8TBC4)
Assay: Nedd8 conjugation inhibitory activity (AlphaScreen assay)
Format: biochemical
Details: purified NAE, GST-UBC12, Biotin-Nedd8, ATP

NAE (heterodimer of APPBP1 and UBA3), sequence (Q8TBC4 whole entry): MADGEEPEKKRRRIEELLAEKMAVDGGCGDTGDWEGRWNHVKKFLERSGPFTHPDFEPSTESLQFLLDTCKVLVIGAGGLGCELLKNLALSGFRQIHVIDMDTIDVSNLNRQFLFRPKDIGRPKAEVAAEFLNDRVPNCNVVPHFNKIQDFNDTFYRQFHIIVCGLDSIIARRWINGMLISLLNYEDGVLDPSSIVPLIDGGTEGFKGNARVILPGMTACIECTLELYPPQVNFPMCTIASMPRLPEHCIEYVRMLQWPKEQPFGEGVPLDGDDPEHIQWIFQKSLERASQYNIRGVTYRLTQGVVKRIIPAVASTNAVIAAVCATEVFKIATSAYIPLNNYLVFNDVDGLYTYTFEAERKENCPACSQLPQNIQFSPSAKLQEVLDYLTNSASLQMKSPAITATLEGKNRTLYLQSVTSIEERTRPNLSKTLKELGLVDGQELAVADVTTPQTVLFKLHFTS
NAE (heterodimer of APPBP1 and UBA3), sequence (Q13564 whole entry partner): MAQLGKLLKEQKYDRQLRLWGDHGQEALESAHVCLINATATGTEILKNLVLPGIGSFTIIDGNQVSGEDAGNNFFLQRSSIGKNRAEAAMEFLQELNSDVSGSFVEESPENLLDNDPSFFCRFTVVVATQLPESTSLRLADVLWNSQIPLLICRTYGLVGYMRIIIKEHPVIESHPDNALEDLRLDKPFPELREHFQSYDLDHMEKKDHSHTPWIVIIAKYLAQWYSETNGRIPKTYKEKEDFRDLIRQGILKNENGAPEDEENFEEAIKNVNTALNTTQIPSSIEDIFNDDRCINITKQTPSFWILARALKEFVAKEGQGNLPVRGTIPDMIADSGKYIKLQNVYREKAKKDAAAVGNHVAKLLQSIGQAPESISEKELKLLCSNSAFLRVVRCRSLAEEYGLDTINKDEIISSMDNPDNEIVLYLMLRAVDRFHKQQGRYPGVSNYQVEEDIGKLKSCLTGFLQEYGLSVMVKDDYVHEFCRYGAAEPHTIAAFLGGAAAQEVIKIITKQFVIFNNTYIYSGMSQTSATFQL

Row | SMILES | IC50
1 | Nc1ncnc2c1c(C#Cc1ccnc3ccccc13)cn2[C@@H]1O[C@H](CNS(N)(=O)=O)[C@@H](O)[C@H]1O [Example 8, 4-[2-[4-Amino-7-[(2R,3R,4S,5R)-3,4-dihydroxy-5-[(sulfamoylamino)methyl]tetrahydrofuran-2-yl]pyrrolo[2,3-d]pyrimidin-5-yl]ethynyl]quinoline] | 0.029 µM
2 | Nc1ncnc2c1c(C#Cc1nccc3ccccc13)cn2[C@@H]1O[C@H](CNS(N)(=O)=O)[C@@H](O)[C@H]1O [Example 11, 1-[2-[4-Amino-7-[(2R,3R,4S,5R)-3,4-dihydroxy-5-[(sulfamoylamino)methyl]tetrahydrofuran-2-yl]pyrrolo[2,3-d]pyrimidin-5-yl]ethynyl]isoquinoline] | 0.0078 µM
3 | COc1cccc(OC)c1C#Cc1cn([C@@H]2O[C@H](CNS(N)(=O)=O)[C@@H](O)[C@H]2O)c2ncnc(N)c12 [Example 16, 4-Amino-7-[(2R,3R,4S,5R)-3,4-dihydroxy-5-[(sulfamoylamino)methyl]tetrahydrofuran-2-yl]-5-[2-(2,6-dimethoxyphenyl)ethynyl]pyrrolo[2,3-d]pyrimidine] | 0.0096 µM
4 | Nc1ncnc2c1c(C#Cc1cccc3cccnc13)cn2[C@@H]1O[C@H](CNS(N)(=O)=O)[C@@H](O)[C@H]1O [Example 17, 8-[2-[4-Amino-7-[(2R,3R,4S,5R)-3,4-dihydroxy-5-[(sulfamoylamino)methyl]tetrahydrofuran-2-yl]pyrrolo[2,3-d]pyrimidin-5-yl]ethynyl]quinoline] | 0.0054 µM
5 | Nc1ncnc2c1c(C#Cc1ccccc1OC(F)F)cn2[C@@H]1O[C@H](CNS(N)(=O)=O)[C@@H](O)[C@H]1O [Example 18, 4-Amino-5-[2-[2-(difluoromethoxy)phenyl]ethynyl]-7-[(2R,3R,4S,5R)-3,4-dihydroxy-5-[(sulfamoylamino)methyl]tetrahydrofuran-2-yl]pyrrolo[2,3-d]pyrimidine] | 0.027 µM
6 | Nc1ncnc2c1c(C#Cc1ccc3[nH]ncc3n1)cn2[C@@H]1O[C@H](CNS(N)(=O)=O)[C@@H](O)[C@H]1O [Example 19, 4-Amino-7-[(2R,3R,4S,5R)-3,4-dihydroxy-5-[(sulfamoylamino)methyl]tetrahydrofuran-2-yl]-5-[2-(1H-pyrazolo[4,3-b]pyridin-5-yl)ethynyl]pyrrolo[2,3-d]pyrimidine] | 0.028 µM
7 | Nc1ccc(C#Cc2cn([C@@H]3O[C@H](CNS(N)(=O)=O)[C@@H](O)[C@H]3O)c3ncnc(N)c23)c(F)c1 [Example 20, 4-Amino-5-[2-(4-amino-2-fluoro-phenyl)ethynyl]-7-[(2R,3R,4S,5R)-3,4-dihydroxy-5-[(sulfamoylamino)methyl]tetrahydrofuran-2-yl]pyrrolo[2,3-d]pyrimidine] | 0.0091 µM
8 | Nc1ncnc2c1c(C#CC1CCc3ccccc31)cn2[C@@H]1O[C@H](CNS(N)(=O)=O)[C@@H](O)[C@H]1O (stereo partly drawn) [Example 21, 4-Amino-7-[(2R,3R,4S,5R)-3,4-dihydroxy-5-[(sulfamoylamino)methyl]tetrahydrofuran-2-yl]-5-(2-indan-1-ylethynyl)pyrrolo[2,3-d]pyrimidine] | 0.015 µM
9 | CCNc1cc(F)c(C#Cc2cn([C@@H]3O[C@H](CNS(N)(=O)=O)[C@@H](O)[C@H]3O)c3ncnc(N)c23)c(F)c1 [Example 26, 4-Amino-7-[(2R,3R,4S,5R)-3,4-dihydroxy-5-[(sulfamoylamino)methyl]tetrahydrofuran-2-yl]-5-[2-[4-(ethylamino)-2,6-difluoro-phenyl]ethynyl]pyrrolo[2,3-d]pyrimidine] | 0.012 µM
10 | Nc1ncnc2c1c(C#Cc1c(F)cc(N3CC[C@@H](O)C3)cc1F)cn2[C@@H]1O[C@H](CNS(N)(=O)=O)[C@@H](O)[C@H]1O [Example 30, 4-Amino-5-[2-[2,6-difluoro-4-[(3R)-3-hydroxypyrrolidin-1-yl]phenyl]ethynyl]-7-[(2R,3R,4S,5R)-3,4-dihydroxy-5-[(sulfamoylamino)methyl]tetrahydrofuran-2-yl]pyrrolo[2,3-d]pyrimidine] | 0.027 µM
11 | CCOc1cc(N2CCOCC2)cc(F)c1C#Cc1cn([C@@H]2O[C@H](CNS(N)(=O)=O)[C@@H](O)[C@H]2O)c2ncnc(N)c12 [Example 34, 4-[4-[2-[4-Amino-7-[(2R,3R,4S,5R)-3,4-dihydroxy-5-[(sulfamoylamino)methyl]tetrahydrofuran-2-yl]pyrrolo[2,3-d]pyrimidin-5-yl]ethynyl]-3-ethoxy-5-fluoro-phenyl]morpholine] | 0.024 µM
12 | CCOc1cc(F)cc(F)c1C#Cc1cn([C@@H]2O[C@H](CNS(N)(=O)=O)[C@@H](O)[C@H]2O)c2ncnc(N)c12 [Example 35, 4-Amino-7-[(2R,3R,4S,5R)-3,4-dihydroxy-5-[(sulfamoylamino)methyl]tetrahydrofuran-2-yl]-5-[2-(2-ethoxy-4,6-difluoro-phenyl)ethynyl]pyrrolo[2,3-d]pyrimidine] | 0.0041 µM
13 | Nc1ncnc2c1c(C#Cc1c(F)cc(N3CCSCC3)cc1F)cn2[C@@H]1O[C@H](CNS(N)(=O)=O)[C@@H](O)[C@H]1O [Example 37, 4-[4-[2-[4-Amino-7-[(2R,3R,4S,5R)-3,4-dihydroxy-5-[(sulfamoylamino)methyl]tetrahydrofuran-2-yl]pyrrolo[2,3-d]pyrimidin-5-yl]ethynyl]-3,5-difluoro-phenyl]thiomorpholine] | 0.011 µM
14 | Nc1ncnc2c1c(C#Cc1c(F)cc(N3CCCC(O)C3)cc1F)cn2[C@@H]1O[C@H](CNS(N)(=O)=O)[C@@H](O)[C@H]1O (stereo partly drawn) [Example 38, 4-Amino-5-[2-[2,6-difluoro-4-(3-hydroxy-1-piperidyl)phenyl]ethynyl]-7-[(2R,3R,4S,5R)-3,4-dihydroxy-5-[(sulfamoylamino)methyl]tetrahydrofuran-2-yl]pyrrolo[2,3-d]pyrimidine] | 0.0035 µM
15 | Nc1ncnc2c1c(C#Cc1c(F)cc(N3CCC(=O)CC3)cc1F)cn2[C@@H]1O[C@H](CNS(N)(=O)=O)[C@@H](O)[C@H]1O [Example 42, 4-Amino-5-[2-[2,6-difluoro-4-(4-oxo-1-piperidyl)phenyl]ethynyl]-7-[(2R,3R,4S,5R)-3,4-dihydroxy-5-[(sulfamoylamino)methyl]tetrahydrofuran-2-yl]pyrrolo[2,3-d]pyrimidine] | 0.0043 µM
16 | Nc1ncnc2c1c(C#Cc1ccccn1)cn2[C@@H]1O[C@H](CNS(N)(=O)=O)[C@@H](O)[C@H]1O [Example 44, 4-Amino-7-[(2R,3R,4S,5R)-3,4-dihydroxy-5-[(sulfamoylamino)methyl]tetrahydrofuran-2-yl]-5-[2-(2-pyridyl)ethynyl]pyrrolo[2,3-d]pyrimidine] | 0.029 µM
17 | N#Cc1ccccc1C#Cc1cn([C@@H]2O[C@H](CNS(N)(=O)=O)[C@@H](O)[C@H]2O)c2ncnc(N)c12 [Example 49, 4-Amino-5-[2-(2-cyanophenyl)ethynyl]-7-[(2R,3R,4S,5R)-3,4-dihydroxy-5-[(sulfamoylamino)methyl]tetrahydrofuran-2-yl]pyrrolo[2,3-d]pyrimidine] | 0.018 µM
18 | COc1cccc(F)c1C#Cc1cn([C@@H]2O[C@H](CNS(N)(=O)=O)[C@@H](O)[C@H]2O)c2ncnc(N)c12 [Example 51, 4-Amino-7-[(2R,3R,4S,5R)-3,4-dihydroxy-5-[(sulfamoylamino)methyl]tetrahydrofuran-2-yl]-5-[2-(2-fluoro-6-methoxy-phenyl)ethynyl]pyrrolo[2,3-d]pyrimidine] | 0.0035 µM
19 | Nc1ncnc2c1c(C#Cc1c(F)cc(O)cc1F)cn2[C@@H]1O[C@H](CNS(N)(=O)=O)[C@@H](O)[C@H]1O [Example 54, 4-Amino-5-[2-(2,6-difluoro-4-hydroxy-phenyl)ethynyl]-7-[(2R,3R,4S,5R)-3,4-dihydroxy-5-[(sulfamoylamino)methyl]tetrahydrofuran-2-yl]pyrrolo[2,3-d]pyrimidine] | 0.0045 µM
20 | CC(C)Oc1cccc(F)c1C#Cc1cn([C@@H]2O[C@H](CNS(N)(=O)=O)[C@@H](O)[C@H]2O)c2ncnc(N)c12 [Example 56, 4-Amino-7-[(2R,3R,4S,5R)-3,4-dihydroxy-5-[(sulfamoylamino)methyl]tetrahydrofuran-2-yl]-5-[2-(2-fluoro-6-isopropoxy-phenyl)ethynyl]pyrrolo[2,3-d]pyrimidine] | 0.0053 µM
21 | N#Cc1cc(F)c(C#Cc2cn([C@@H]3O[C@H](CNS(N)(=O)=O)[C@@H](O)[C@H]3O)c3ncnc(N)c23)c(F)c1 [Example 57, 4-Amino-5-[2-(4-cyano-2,6-difluoro-phenyl)ethynyl]-7-[(2R,3R,4S,5R)-3,4-dihydroxy-5-[(sulfamoylamino)methyl]tetrahydrofuran-2-yl]pyrrolo[2,3-d]pyrimidine] | 0.0058 µM
22 | CSc1cccc(F)c1C#Cc1cn([C@@H]2O[C@H](CNS(N)(=O)=O)[C@@H](O)[C@H]2O)c2ncnc(N)c12 [Example 59, 4-Amino-7-[(2R,3R,4S,5R)-3,4-dihydroxy-5-[(sulfamoylamino)methyl]tetrahydrofuran-2-yl]-5-[2-(2-fluoro-6-methylsulfanyl-phenyl)ethynyl]pyrrolo[2,3-d]pyrimidine] | 0.0085 µM
23 | Nc1ncnc2c1c(C#Cc1c(F)cccc1OCC(F)(F)F)cn2[C@@H]1O[C@H](CNS(N)(=O)=O)[C@@H](O)[C@H]1O [Example 61, 4-Amino-7-[(2R,3R,4S,5R)-3,4-dihydroxy-5-[(sulfamoylamino)methyl]tetrahydrofuran-2-yl]-5-[2-[2-fluoro-6-(2,2,2-trifluoroethoxy)phenyl]ethynyl]pyrrolo[2,3-d]pyrimidine] | 0.0038 µM
24 | CCOc1cccc(OC)c1C#Cc1cn([C@@H]2O[C@H](CNS(N)(=O)=O)[C@@H](O)[C@H]2O)c2ncnc(N)c12 [Example 62, 4-Amino-7-[(2R,3R,4S,5R)-3,4-dihydroxy-5-[(sulfamoylamino)methyl]tetrahydrofuran-2-yl]-5-[2-(2-ethoxy-6-methoxy-phenyl)ethynyl]pyrrolo[2,3-d]pyrimidine] | 0.016 µM
25 | COc1ccc2cccnc2c1C#Cc1cn([C@@H]2O[C@H](CNS(N)(=O)=O)[C@@H](O)[C@H]2O)c2ncnc(N)c12 [Example 63, 8-[2-[4-Amino-7-[(2R,3R,4S,5R)-3,4-dihydroxy-5-[(sulfamoylamino)methyl]tetrahydrofuran-2-yl]pyrrolo[2,3-d]pyrimidin-5-yl]ethynyl]-7-methoxyquinoline] | 0.011 µM
